# Literature values in patent publication US20110245352A1, “Composition For Permeabilizing The Walls Of Microorganisms Comprising The Combination Of Ethylenediaminetetraacetic Acid (EDTA) And Polyethyleneimine (PEI)” (Millipore Corporation, priority 2007, published 2011).
# Tested on: gram-positive bacteria
# Settings: EDTA taken alone; in particular gram-positive bacteria
compound,measurement,value
"O=C(O)CN(CCN(CC(=O)O)CC(=O)O)CC(=O)O [EDTA, Ethylenediaminetetraacetic acid]",Permeabilization of microorganism walls for labeling of nucleic acids,does not allow satisfactory permeabilization
